Activity calls are given as the source filed them.
Legend:
[1] = molecular target: G-protein coupled receptor 55 (Homo sapiens, UniProt Q9Y2T6); assay: inhibition of LPI-stimulated GPR55 beta-arrestin translocation – imaging, U2OS, beta-arrestin-GFP, LPI agonist, primary screen (AID 2013); assay type: functional;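 further: antagonist potency measured as reduced agonist-driven arrestin aggregation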
CHO-K1 = assay: (§1) Counterscreen for antagonists of the orexin 1 receptor (OX1R; HCRTR1): Homogeneous time resolved fluorescence (HTRF)-based cell-based dose response assay to identify antagonists of the parental CHO-K1 cell line. [Related pubchem assays (depositor defined):AID434989, AID435008, AID463079, AID485270, AID492963, AID492964, AID492965, AID493232, AID504699, AID504701]; assay type: functional; conditions: Cricetulus griseus
[2] = THP-1 cell cytotoxicity, dose response, cytotoxicity control for non-replicating M. tuberculosis project (AID 489025); assay type: functional
[3] = HepG2 cell cytotoxicity, dose response, cytotoxicity control for non-replicating M. tuberculosis project (AID 489018); assay type: functional; conditions: Mycobacterium tuberculosis
[4] = as §1, with “Fluorescence-based” for “Homogeneous time resolved fluorescence (HTRF)-based”, “cell-based high throughput” for “cell-based”, “CHO” for “CHO-K1”; assay type: functional
[5] = molecular target: T1, Orexin/Hypocretin receptor type 1 (Homo sapiens, UniProt O43613); assay: Homogeneous Time Resolved Fluorescence (HTRF)-based cell-based high throughput dose response assay for antagonists of the orexin 1 receptor (OX1R; HCRTR1). [Related pubchem assays (depositor defined):AID434989, AID435008, AID463079, AID485270, AID492963, AID492964, AID492965, AID493232, AID504717, AID504718]; assay type: functional
T1 sequence (O43613 whole entry): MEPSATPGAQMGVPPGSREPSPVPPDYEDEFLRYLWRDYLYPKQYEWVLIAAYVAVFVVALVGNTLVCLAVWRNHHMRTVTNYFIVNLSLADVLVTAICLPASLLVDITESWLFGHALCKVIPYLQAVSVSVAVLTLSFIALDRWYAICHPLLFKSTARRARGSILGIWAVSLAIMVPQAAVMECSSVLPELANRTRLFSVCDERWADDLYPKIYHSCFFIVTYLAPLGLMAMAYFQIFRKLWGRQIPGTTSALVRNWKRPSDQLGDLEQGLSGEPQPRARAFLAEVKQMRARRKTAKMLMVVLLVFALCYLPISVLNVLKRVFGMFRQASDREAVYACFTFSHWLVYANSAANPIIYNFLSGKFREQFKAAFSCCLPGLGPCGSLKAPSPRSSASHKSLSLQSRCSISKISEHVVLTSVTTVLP

[6] = molecular target: T1, Orexin/Hypocretin receptor type 1; assay: Fluorescence-based cell-based high throughput dose response assay for antagonists of the orexin 1 receptor (OX1R; HCRTR1). [Related pubchem assays (depositor defined):AID434989, AID435008, AID463079, AID485270, AID492963, AID492964, AID492965, AID493232, AID504717, AID504718]; assay type: functional
cells = assay type: functional
[7] = molecular target: T2, RNA-editing ligase 1, mitochondrial (Trypanosoma brucei brucei, UniProt P86926); assay: inhibition of trypanosome RNA editing ligase – biochemical, fluorescence, Trypanosoma brucei, dose response (AID 1117295); assay type: functional
T2 sequence (P86926 whole entry): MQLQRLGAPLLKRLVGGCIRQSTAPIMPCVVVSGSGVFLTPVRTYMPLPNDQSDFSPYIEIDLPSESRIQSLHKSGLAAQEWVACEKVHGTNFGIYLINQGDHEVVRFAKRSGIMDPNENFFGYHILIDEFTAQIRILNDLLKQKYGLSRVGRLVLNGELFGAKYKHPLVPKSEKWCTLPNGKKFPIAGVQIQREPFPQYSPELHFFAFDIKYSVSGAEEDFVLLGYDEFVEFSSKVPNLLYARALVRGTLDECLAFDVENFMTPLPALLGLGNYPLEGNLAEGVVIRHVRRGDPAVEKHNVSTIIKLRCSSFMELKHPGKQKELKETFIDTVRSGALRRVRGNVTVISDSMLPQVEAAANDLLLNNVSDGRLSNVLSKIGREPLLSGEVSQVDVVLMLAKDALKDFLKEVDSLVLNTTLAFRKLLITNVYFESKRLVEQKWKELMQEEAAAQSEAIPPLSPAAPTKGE

SUMO-activating enzyme = SUMO-activating enzyme (Homo sapiens, UniProt Q9UBT2); assay: blockers of UBC9-mediated SUMO conjugation – biochemical, AlphaScreen, SUMOylation inhibitor project, confirmation (AID 2018); assay type: functional
Chain of SUMO-activating enzyme (Q9UBE0 whole entry): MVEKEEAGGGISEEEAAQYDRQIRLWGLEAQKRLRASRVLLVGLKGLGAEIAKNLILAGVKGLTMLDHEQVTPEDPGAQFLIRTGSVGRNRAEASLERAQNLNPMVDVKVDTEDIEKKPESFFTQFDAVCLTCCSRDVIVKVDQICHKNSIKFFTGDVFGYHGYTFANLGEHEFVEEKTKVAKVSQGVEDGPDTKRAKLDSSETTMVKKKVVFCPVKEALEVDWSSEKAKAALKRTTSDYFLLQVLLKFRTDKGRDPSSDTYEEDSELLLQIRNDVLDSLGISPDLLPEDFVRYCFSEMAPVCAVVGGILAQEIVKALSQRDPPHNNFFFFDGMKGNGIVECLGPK
Chain of SUMO-activating enzyme (Q9UBT2 whole entry): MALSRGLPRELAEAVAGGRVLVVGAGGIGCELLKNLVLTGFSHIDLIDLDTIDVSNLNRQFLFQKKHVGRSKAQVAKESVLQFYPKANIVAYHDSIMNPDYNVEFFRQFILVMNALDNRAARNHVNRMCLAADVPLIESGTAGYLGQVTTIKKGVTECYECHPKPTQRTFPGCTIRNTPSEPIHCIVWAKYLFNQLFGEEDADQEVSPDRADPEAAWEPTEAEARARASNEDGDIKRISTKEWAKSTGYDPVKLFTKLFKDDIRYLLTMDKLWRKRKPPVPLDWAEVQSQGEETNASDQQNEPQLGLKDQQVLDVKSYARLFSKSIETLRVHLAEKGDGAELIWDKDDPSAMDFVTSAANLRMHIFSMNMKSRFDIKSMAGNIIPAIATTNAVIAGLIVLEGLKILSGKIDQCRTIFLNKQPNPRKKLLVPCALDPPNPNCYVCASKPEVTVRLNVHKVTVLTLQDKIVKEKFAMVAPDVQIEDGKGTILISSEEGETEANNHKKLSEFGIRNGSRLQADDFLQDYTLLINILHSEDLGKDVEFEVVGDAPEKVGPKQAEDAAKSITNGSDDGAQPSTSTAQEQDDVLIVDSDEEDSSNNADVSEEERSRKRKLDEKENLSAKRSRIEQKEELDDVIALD

[8] = luciferase reporter signal suppression in cells – H4 neuroglioma cells, luminescence, dose response (AID 1990); assay type: functional, cell-based
[9] = Luminescence Cell-Based Dose Response HTS to Identify Inhibitors of 5'UTR Stem-Loop Driven Prion Protein mRNA Translation in H4 Neuroglioblastoma Cells. [Related pubchem assays: 1827 (Project Summary), 1813 (Primary HTS)]; assay type: functional
[10] = alpha-synuclein stem-loop luciferase translation blockers – H4 neuroglioma cells, luminescence, confirmation (AID 1988); assay type: functional, cell-based
SUMO E1/E2 = SUMO E1/E2 (Homo sapiens, UniProt P63279+Q9UBE0+Q9UBT2); assay: SAR analysis of SUMOylation using HTRF in an in-Vitro dose response assay. [Related pubchem assays (depositor defined):AID2006, AID2011, AID2018, AID2069, AID2658]; assay type: functional
Chain of SUMO E1/E2 (Q9UBE0 whole entry): as the sequence (Q9UBE0 whole entry) above
Chain of SUMO E1/E2 (Q9UBT2 whole entry): as the sequence (Q9UBT2 whole entry) above
Chain of SUMO E1/E2 (P63279 whole entry): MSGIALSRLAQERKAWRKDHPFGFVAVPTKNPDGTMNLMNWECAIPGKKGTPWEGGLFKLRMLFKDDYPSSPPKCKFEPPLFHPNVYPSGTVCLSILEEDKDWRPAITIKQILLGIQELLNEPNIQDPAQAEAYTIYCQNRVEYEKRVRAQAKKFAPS

Exodeoxyribonuclease V = molecular target: T3, Exodeoxyribonuclease V (Escherichia coli (strain K12), UniProt P04993+P07648+P08394); assay: RecBCD inhibition via phage-restricted bacterial growth – absorbance, V66 E. coli, mutant T4 phage, counter-screen for AddAB inhibitor project, dose response (AID 492957); assay type: functional, cell-based, Escherichia coli str. K-12 substr. MG1655
T3 sequence (P04993 whole entry): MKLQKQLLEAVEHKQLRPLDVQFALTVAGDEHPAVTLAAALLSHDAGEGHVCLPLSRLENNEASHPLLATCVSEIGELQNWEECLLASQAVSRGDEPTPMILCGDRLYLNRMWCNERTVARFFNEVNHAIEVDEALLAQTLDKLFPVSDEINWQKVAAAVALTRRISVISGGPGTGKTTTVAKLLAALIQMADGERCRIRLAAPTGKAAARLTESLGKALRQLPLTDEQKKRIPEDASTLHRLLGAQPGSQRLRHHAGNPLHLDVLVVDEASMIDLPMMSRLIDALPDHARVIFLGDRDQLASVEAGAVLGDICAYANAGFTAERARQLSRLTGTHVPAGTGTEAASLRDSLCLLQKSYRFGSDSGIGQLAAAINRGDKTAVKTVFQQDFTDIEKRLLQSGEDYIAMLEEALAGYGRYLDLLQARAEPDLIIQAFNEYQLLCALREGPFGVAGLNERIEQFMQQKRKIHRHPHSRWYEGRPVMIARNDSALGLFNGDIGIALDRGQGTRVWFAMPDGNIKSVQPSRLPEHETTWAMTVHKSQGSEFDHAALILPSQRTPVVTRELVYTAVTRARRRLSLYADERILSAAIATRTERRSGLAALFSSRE
T3 sequence (P07648 whole entry): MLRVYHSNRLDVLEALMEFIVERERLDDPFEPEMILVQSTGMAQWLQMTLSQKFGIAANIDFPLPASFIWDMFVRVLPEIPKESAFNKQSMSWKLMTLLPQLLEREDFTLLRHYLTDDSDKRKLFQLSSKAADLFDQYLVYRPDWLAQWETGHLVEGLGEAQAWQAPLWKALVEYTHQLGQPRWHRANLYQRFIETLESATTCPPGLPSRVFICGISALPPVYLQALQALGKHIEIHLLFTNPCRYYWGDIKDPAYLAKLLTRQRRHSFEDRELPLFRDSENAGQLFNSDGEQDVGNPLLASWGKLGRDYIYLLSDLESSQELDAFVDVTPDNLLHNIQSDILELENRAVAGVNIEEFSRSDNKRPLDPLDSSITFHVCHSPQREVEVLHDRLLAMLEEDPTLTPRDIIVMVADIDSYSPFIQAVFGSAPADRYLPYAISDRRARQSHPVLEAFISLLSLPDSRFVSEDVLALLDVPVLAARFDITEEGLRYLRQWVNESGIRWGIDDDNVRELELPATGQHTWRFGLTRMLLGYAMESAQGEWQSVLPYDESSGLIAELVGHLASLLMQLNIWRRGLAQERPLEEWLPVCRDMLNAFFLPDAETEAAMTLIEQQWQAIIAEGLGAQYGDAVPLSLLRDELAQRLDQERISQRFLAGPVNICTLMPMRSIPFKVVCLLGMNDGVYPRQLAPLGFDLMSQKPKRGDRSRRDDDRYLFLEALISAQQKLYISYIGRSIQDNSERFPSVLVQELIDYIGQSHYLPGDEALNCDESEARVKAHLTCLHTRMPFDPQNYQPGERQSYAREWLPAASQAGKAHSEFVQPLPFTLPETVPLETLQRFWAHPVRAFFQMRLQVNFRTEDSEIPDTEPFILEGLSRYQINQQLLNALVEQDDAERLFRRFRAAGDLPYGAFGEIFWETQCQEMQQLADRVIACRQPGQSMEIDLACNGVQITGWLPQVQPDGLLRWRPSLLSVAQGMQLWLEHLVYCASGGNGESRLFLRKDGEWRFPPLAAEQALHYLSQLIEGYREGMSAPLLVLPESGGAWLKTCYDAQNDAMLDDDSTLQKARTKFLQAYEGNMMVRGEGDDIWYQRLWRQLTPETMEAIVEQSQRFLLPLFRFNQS
T3 sequence (P08394 whole entry): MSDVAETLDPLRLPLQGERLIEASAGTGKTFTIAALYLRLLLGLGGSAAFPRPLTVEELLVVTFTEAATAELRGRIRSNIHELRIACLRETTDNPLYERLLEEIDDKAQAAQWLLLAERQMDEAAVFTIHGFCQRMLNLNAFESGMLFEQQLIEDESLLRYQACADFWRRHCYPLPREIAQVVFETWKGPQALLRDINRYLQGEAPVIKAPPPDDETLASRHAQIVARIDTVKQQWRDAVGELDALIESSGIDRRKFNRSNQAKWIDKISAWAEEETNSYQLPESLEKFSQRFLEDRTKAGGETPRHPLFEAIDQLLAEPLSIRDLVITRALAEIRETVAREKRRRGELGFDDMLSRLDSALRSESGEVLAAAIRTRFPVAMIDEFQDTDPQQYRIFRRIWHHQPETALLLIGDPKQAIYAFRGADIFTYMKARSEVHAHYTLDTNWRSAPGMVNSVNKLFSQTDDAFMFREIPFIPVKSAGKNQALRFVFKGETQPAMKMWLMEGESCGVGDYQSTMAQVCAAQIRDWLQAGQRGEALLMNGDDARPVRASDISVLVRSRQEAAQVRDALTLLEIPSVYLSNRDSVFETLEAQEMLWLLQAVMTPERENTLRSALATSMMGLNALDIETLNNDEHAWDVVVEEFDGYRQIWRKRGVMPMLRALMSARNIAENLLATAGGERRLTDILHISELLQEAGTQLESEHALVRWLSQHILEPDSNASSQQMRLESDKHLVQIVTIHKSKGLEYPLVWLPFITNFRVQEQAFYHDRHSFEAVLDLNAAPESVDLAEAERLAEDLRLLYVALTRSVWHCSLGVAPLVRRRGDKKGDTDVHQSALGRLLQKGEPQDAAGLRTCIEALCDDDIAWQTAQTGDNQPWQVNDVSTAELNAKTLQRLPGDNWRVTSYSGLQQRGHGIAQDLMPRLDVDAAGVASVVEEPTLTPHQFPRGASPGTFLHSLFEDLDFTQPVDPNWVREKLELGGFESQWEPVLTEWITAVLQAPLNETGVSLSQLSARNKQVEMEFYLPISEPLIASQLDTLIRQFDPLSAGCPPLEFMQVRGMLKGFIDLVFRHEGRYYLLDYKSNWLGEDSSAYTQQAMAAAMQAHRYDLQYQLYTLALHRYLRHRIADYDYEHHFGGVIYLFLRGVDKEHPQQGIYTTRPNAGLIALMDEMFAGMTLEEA

[11] = Counterscreen for AddAB inhibitors: absorbance-based bacterial cell-based high throughput dose response assay for inhibitors of bacterial viability. [Related pubchem assays (depositor defined):AID435030, AID449728, AID449731, AID488942, AID488955, AID488956]; assay type: functional

Chain of G-protein coupled receptor 55 (Q9Y2T6 whole entry): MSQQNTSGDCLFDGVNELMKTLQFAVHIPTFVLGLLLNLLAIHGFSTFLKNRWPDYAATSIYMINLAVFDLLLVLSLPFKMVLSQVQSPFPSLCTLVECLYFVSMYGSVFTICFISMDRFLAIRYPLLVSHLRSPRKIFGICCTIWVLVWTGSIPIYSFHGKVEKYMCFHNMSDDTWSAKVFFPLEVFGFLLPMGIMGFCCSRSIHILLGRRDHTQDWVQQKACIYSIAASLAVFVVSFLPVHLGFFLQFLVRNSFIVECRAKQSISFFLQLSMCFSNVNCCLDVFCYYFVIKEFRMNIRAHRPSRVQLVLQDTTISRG

COC(=O)C1=C(C)N(Cc2ccccc2)C(NCc2ccccc2)=N[C@H]1c1cccc(F)c1
IC50 [1]: 1.25 µM (active)
IC50 (CHO-K1): > 66.2 µM (inactive)
CC50 [2]: 15 µM (active)
CC50 [3]: 14.9 µM (active)
IC50 [4]: 23.8 µM (inactive)
IC50 [5]: > 66.2 µM (inactive)
IC50 [6]: 17.9 µM (inactive)
IC50 (cells): 19.8 µM (active)
IC50 [7]: > 96.6 µM (inactive)

Cc1ccc(-c2nc3ccccc3o2)cc1NC(=O)c1ccc2c(c1)OCO2
IC50 (SUMO-activating enzyme): 34.1 µM (active)

Nc1c2cnnc-2nc(SCC(=O)c2ccc(Br)cc2)n1-c1ccc(Br)cc1
EC50 [8]: > 120 µM (not active)
EC50 [9]: > 120 µM (not active)
IC50 (SUMO-activating enzyme): 59.1 µM (active)
EC50 [10]: > 120 µM (not active)

Cc1ccc(Nc2cc3ccccc3c(=O)[nH]2)cc1
IC50 (SUMO E1/E2): 19.8 µM (active)

CC(=O)N(O)CCCCCNC(=O)CCC(=O)N(O)CCCCCNC(=O)CCC(=O)N(O)CCCCCNC(=O)CCC(=O)O
IC50 (Exodeoxyribonuclease V): > 118 µM (inactive)
IC50 [11]: > 118 µM (inactive)

Cc1ccc(C2Nc3ccc(C(=O)O)cc3C3C=CCC32)cc1 (stereo not drawn)
IC50 (SUMO E1/E2): > 100 µM (inactive)

— ChEMBL document CHEMBL1201862, “PubChem BioAssay data set” (2004)
